We go through 1 compound from EP2954896A1, “Small molecule inhibitors of the E3 Ligase Skp2 in depression and other diseases” (Max-Planck-Gesellschaft zur Förderung der Wissenschaften …, priority 2014, dated 2015).

Experiment [1] can be described thus: Chronic PAR treatment after chronic social defeat stress: behavioral tests (open field, social avoidance, forced swim). It counts as in vivo. The following applies: FKBP51-deleted versus wild type mice. An excerpt: After cessation of the stressor, groups were subdivided into vehicle-treated and paroxetine-treated animals, resulting in 8 groups (n = 7-13 per group). The treatment phase lasted for three weeks. The behavioral tests took place during the last week of the paroxetine treatment. The CSDS paradigm lasted for 21 days. Briefly, the experimental mice were introduced into the home cage (45 cm x 25 cm) of a dominant resident mouse and defeated shortly after. When the defeat was achieved, the animals were separated by a wire mesh, preventing physical but allowing sensory contact for 24 h. Each day, stressed animals were defeated by another unfamiliar, dominant resident mouse in order to exclude a repeated encounter throughout the experiment. The daily defeat was performed between 11:00 and 16:00 h; varying starting times reduced the predictability of the stressor and therefore minimized a potential habituation effect. […] Both stress and control animals were handled daily during the stress procedure; body weight for all mice was assessed at the beginning of the experiment, after the cessation of the stress period, and on the day of killing. […] All tests were analyzed using an automated videotracking system (Anymaze 4.20, Stoelting, Wood Dale, IL). […] Time spent immobile (floating) and time spent struggling was scored by an experienced observer, blind to treatment or condition of the animals.

A further experiment concerns Beclin1 mRNA. Briefly: Beclin1 mRNA expression by qPCR in rat cortical astrocytes. It is filed as cell-based. The following applies: 10µM for 72h; vehicle set to 1. As for the experimental part:
Enriched astroglial cultures were prepared from postnatal day 1 rat pups (Sprague-Dawley, Charles River, Sulzfeld, Germany) and handled as described by Attwood BK et al. (2011) Nature 473: 372-375 and Hartmann J et al. (2012) Neuropharmacology 62: 332-339.
Total RNA was isolated from astroglial cells according to the manufacturer's protocol of NucleoSpin RNA II (Macherey-Nagel, Germany). In total, 300 ng of purified RNA was reverse transcribed using random primers (Promega) and Omniscript® Reverse Transcriptase (Qiagen). Based on the LightCycler® System (Roche Applied Science, Germany) and SYBR green detection (QuantiFast® SYBR Green; Qiagen), quantitative assessment of Beclin1 cDNA levels were performed. b-Actin PCR was performed serving as endogenous control for normalization. The primers used were: for Beclin1: antisense - 5'-[…]-3' sense - 5'-[…]-3'; and for β-Actin: antisense - 5'-[…]-3', sense-5'-[…]-3'. Relative changes of gene expression were calculated using the comparative ΔΔCT method (Livak and Schmittgen, METHODS 25, 402-408, 2001). Detection of viral RNA by real-time PCR was as recently described (Corman et al. (2014) Journal of Clinical Virology 60: 168-171).
Beclin1 mRNA expression levels were determined by qPCR. HEK cells were treated either with proteasome inhibitor MG132 or with vehicle for 5h and Beclin1 protein levels were determined by Western analysis. Furthermore Co-immunoprecipitations were performed with Beclin1 antibody in HEK cell lysates with ectopic Ub-GFP.
On the technique in general: Quantitative PCR measures a nucleic acid by following its amplification.

Take `Fc1ccc([C@@H]2CCNC[C@H]2COc2ccc3c(c2)OCO3)cc1` [PAR, paroxetine]: in experiment [1], the “enhancing struggling and reducing floating, forced swim test” value was “significantly less effective”. In addition, in the experiment with Beclin1 mRNA, the “Beclin1 mRNA expression level” value was “do not change Beclin1-mRNA”.
